The record followed here is ChEMBL document CHEMBL5532637, “Antimicrobial activity of natural and semi-synthetic carbazole alkaloids” (Eur J Med Chem, 2023).

For experiment [1], the system named is Staphylococcus aureus. As to the kind of experiment: Antibacterial activity against Staphylococcus aureus assessed as inhibition of bacterial growth by broth microdilution method. The class given is functional.
The next experiment concerns Salmonella typhimurium. As to the kind of experiment: Antibacterial activity against Salmonella typhimurium assessed as inhibition of bacterial growth by broth dilution method. The class given is functional, Salmonella enterica subsp. enterica serovar Typhimurium. As to conditions: Salmonella enterica.
The test system of another experiment is Streptococcus pyogenes. Description: Antibacterial activity against Streptococcus pyogenes assessed as inhibition of bacterial growth by broth dilution method. The class given is functional.
The test system of experiment [2] is Escherichia coli. As to the kind of experiment: Antibacterial activity against Escherichia coli assessed as inhibition of bacterial growth by broth dilution method. The class given is functional.
The next experiment has as its system Xanthomonas oryzae. Description: Antimicrobial activity against Xanthomonas oryzae incubated for 24 to 48 hrs by turbidimeter test. The class given is functional, organism-based.
A short description of experiment [3]: Antimicrobial activity against Pseudomonas syringae pv. actinidiae incubated for 24 to 48 hrs by turbidimeter test. The class given is functional.
A further experiment relates to Xanthomonas axonopodis. Description: Antimicrobial activity against Xanthomonas axonopodis incubated for 24 to 48 hrs by turbidimeter test. The class given is functional, organism-based.
For experiment [4], the system named is Escherichia coli. Description: Antimicrobial activity against Escherichia coli assessed as zone of inhibition at 40 ug/ml. The class given is functional. As to conditions: read-out: IZ.
Experiment [5] deals with Aspergillus niger. Description: Antimicrobial activity against Aspergillus niger assessed as zone of inhibition at 50 ug/ml. The class given is functional. As to conditions: read-out: IZ.
Experiment [6] relates to Bacillus subtilis. Description: Antimicrobial activity against Bacillus subtilis assessed as zone of inhibition at 40 ug/ml. The class given is functional. As to conditions: read-out: IZ.
A further experiment relates to Aspergillus flavus. Description: Antimicrobial activity against Aspergillus flavus assessed as zone of inhibition at 50 ug/ml. The class given is functional. The note with it: read-out: IZ.
Experiment [7] relates to Staphylococcus aureus. Description: Antimicrobial activity against Staphylococcus aureus assessed as zone of inhibition at 40 ug/ml. The class given is functional. As to conditions: read-out: IZ.
Another experiment relates to Klebsiella pneumoniae. Description: Antimicrobial activity against Klebsiella pneumoniae assessed as zone of inhibition at 40 ug/ml. As to conditions: read-out: IZ. The class given is functional.
For the next experiment, the system named is Fusarium oxysporum. Description: Antimicrobial activity against Fusarium oxysporum assessed as zone of inhibition at 50 ug/ml. The class given is functional. As to conditions: read-out: IZ.
Experiment [8] deals with Pseudomonas aeruginosa. As to the kind of experiment: Antibacterial activity against Pseudomonas aeruginosa MTCC 1688 assessed as inhibition of bacterial growth incubated for 24 hrs by two-fold serial dilution method. The class given is functional.
In experiment [9] the test system is Escherichia coli. Description: Antibacterial activity against Escherichia coli MTCC 1687 assessed as inhibition of bacterial growth incubated for 24 hrs by two-fold serial dilution method. The class given is functional.
Experiment [10] has as its system Staphylococcus aureus. As to the kind of experiment: Antibacterial activity against Staphylococcus aureus MTCC 96 assessed as inhibition of bacterial growth incubated for 24 hrs by two-fold serial dilution method. The class given is functional.
The subject of experiment [11] is Bacillus subtilis. As to the kind of experiment: Antibacterial activity against Bacillus subtilis MTCC441 assessed as inhibition of bacterial growth incubated for 24 hrs by two-fold serial dilution method. The class given is functional.
The test system of experiment [12] is Staphylococcus aureus. Description: Antimicrobial activity against Staphylococcus aureus clinical isolate assessed as inhibition of microbial growth incubated for 18 hrs by resazurin dye based two-fold serial dilution assay. The class given is functional.
Experiment [13] has as its system Cryptococcus neoformans. As to the kind of experiment: Antimicrobial activity against Cryptococcus neoformans clinical isolate assessed as inhibition of microbial growth incubated for 18 hrs by resazurin dye based two-fold serial dilution assay. The class given is functional.
The test system of experiment [14] is Staphylococcus aureus. Description: Antimicrobial activity against Staphylococcus aureus assessed as inhibition of microbial growth incubated for 18 hrs by resazurin dye based two-fold serial dilution assay. The class given is functional.
For experiment [15], the system named is Cryptococcus neoformans. As to the kind of experiment: Antimicrobial activity against Cryptococcus neoformans ATCC6603 assessed as inhibition of microbial growth incubated for 18 hrs by resazurin dye based two-fold serial dilution assay. The class given is functional.
For experiment [16], the system named is Candida albicans. Description: Antifungal activity against Candida albicans assessed as inhibition of fungal growth incubated for 1 to 5 days. The class given is functional. The note with it: time 1-5 day.
In experiment [17] the test system is Escherichia coli. Description: Antimicrobial activity against Escherichia coli assessed as zone of inhibition incubated for 24 hrs by disc diffusion method. The class given is functional.
In experiment [18] the test system is Aspergillus niger. Description: Antimicrobial activity against Aspergillus niger assessed as zone of inhibition incubated for 48 hrs by disc diffusion method. The class given is functional.
Experiment [19] has as its system Staphylococcus aureus. As to the kind of experiment: Antimicrobial activity against Staphylococcus aureus assessed as zone of inhibition incubated for 24 hrs by disc diffusion method. The class given is functional.
In experiment [20] the test system is Bacillus subtilis. As to the kind of experiment: Antimicrobial activity against Bacillus subtilis assessed as zone of inhibition incubated for 24 hrs by disc diffusion method. The class given is functional.
The subject of another experiment is Shigella flexneri. As to the kind of experiment: Antimicrobial activity against Shigella flexneri assessed as zone of inhibition incubated for 24 hrs by disc diffusion method. The class given is functional.
Experiment [21] relates to Candida albicans. Description: Antimicrobial activity against Candida albicans assessed as zone of inhibition incubated for 48 hrs by disc diffusion method. The class given is functional.
The test system of experiment [22] is Pseudomonas aeruginosa. As to the kind of experiment: Antibacterial activity against Pseudomonas aeruginosa assessed as inhibition of bacterial growth incubated for 18 to 24 hrs by broth macrodilution assay. The class given is functional. The note with it: time 18-24 hrs.
Experiment [23] relates to Escherichia coli. As to the kind of experiment: Antibacterial activity against Escherichia coli assessed as inhibition of bacterial growth incubated for 18 to 24 hrs by broth macrodilution assay. The class given is functional. As to conditions: time 18-24 hrs.
For a further experiment, the system named is Salmonella typhi. As to the kind of experiment: Antibacterial activity against Salmonella typhi assessed as inhibition of bacterial growth incubated for 18 to 24 hrs by broth macrodilution assay. The class given is functional, Salmonella enterica subsp. enterica serovar Typhi. The note with it: Salmonella enterica; time 18-24 hrs.
Experiment [24] has as its system Staphylococcus epidermidis. As to the kind of experiment: Antibacterial activity against Staphylococcus epidermidis ATCC 12228 assessed as inhibition of bacterial growth incubated for 24 hrs by alamar blue assay. The class given is functional.
The test system of experiment [25] is Staphylococcus aureus. As to the kind of experiment: Antibacterial activity against Staphylococcus aureus ATCC 6538 assessed as inhibition of bacterial growth incubated for 24 hrs by alamar blue assay. The class given is functional.

≈ marks a conversion by molar mass, not a printed value.

For the compound `CCOC(=O)C1=C(C)NC2=C(C(=O)c3ccccc32)C1c1ccc2c(c1)c1ccccc1n2CC` (centres undefined), the MIC in the experiment with Staphylococcus aureus [1] is 32 µg/mL (≈ 69.2 µM); with Salmonella typhimurium it was 32 µg/mL (≈ 69.2 µM); with Streptococcus pyogenes, 64 µg/mL (≈ 138 µM); in the experiment with Escherichia coli [2], 32 µg/mL (≈ 69.2 µM).
For the compound `OC(CNCc1ccc(Cl)cc1)Cn1c2ccccc2c2ccccc21` (centres undefined), the results for the EC50 (in the experiment with Xanthomonas oryzae; in experiment [3]; with Xanthomonas axonopodis) were 1.27 µg/mL (≈ 3.48 µM), 3.83 µg/mL (≈ 10.5 µM) and 1.96 µg/mL (≈ 5.37 µM), respectively.
On to `CCn1c2ccccc2c2cc(/C=C/C(=O)c3cc(Cl)cc(Cl)c3OCc3cn(Cc4ccccc4)nn3)ccc21`, for which the zone of inhibition at 40 µg/mL in the experiment with Escherichia coli [4] was 26.4 mm; in the experiment with Bacillus subtilis [6] it was 24.2 mm; in the experiment on Staphylococcus aureus [7], 21.4 mm; in the experiment on Klebsiella pneumoniae it was 23.6 mm. Besides, the figures for the zone of inhibition at 50 µg/mL with Aspergillus niger [5], in the experiment on Aspergillus flavus and with Fusarium oxysporum were 15 mm, 12.9 mm and 15.3 mm, respectively.
In the case of `CCOC(=O)C1COC2=C(C(=O)N3c4ccccc4C4C=CC=C2C43)C1c1ccc(OC)cc1` (centres undefined), the MIC with Pseudomonas aeruginosa [8] worked out at 12.5 µg/mL (≈ 27.4 µM); with Escherichia coli [9], 6.25 µg/mL (≈ 13.7 µM); in the experiment on Staphylococcus aureus [10] it was 12.5 µg/mL (≈ 27.4 µM); with Bacillus subtilis [11], 12.5 µg/mL (≈ 27.4 µM).
As to `COc1cccc2c1[nH]c1ccc(C(=O)N3CCCCC3C)cc12` (centres undefined), the MIC in the experiment on Staphylococcus aureus [12] was found to be 6.25 µg/mL; in the experiment on Cryptococcus neoformans [13] it was 12.5 µg/mL; in the experiment with Staphylococcus aureus [14] it was 6.25 µg/mL; with Cryptococcus neoformans [15], 6.25 µg/mL.
`CCn1c2ccccc2c2cc(-c3cc(-c4cc(Cl)cc(O)c4O)n[nH]3)ccc21`: the MIC in the experiment with Candida albicans [16] came to 25 µg/mL (≈ 61.9 µM).
Regarding `Cn1c2ccccc2c2cc(-c3cc(-c4ccccn4)nc(N)n3)ccc21`, the “inhibition zone (IZ)” value in the experiment on Escherichia coli [17] is reported as 10 mm; in the experiment with Aspergillus niger [18], 12 mm; with Staphylococcus aureus [19] it was 18 mm; in the experiment with Bacillus subtilis [20], 18 mm; in the experiment on Shigella flexneri, 18 mm; in the experiment on Candida albicans [21], 15 mm.
Regarding `CCOC(=O)C1=C(C)NC2=C(C(=O)CC(C)(C)C2)C1c1ccc2c(c1)c1ccccc1n2CC` (centres undefined), the MIC in the experiment on Pseudomonas aeruginosa [22], with Escherichia coli [23] and with Salmonella typhi was 16 µg/mL (≈ 35 µM) each time.
`COc1ccccc1OCCNCC(O)COc1cccc2[nH]c3ccccc3c12` (centres undefined) [CARVEDILOL]: the MIC (in experiment [24]; with Staphylococcus aureus [25]) was 40 µg/mL (≈ 98.4 µM) in each case.
